Legend:
melatonin ML1a receptor = target: T1, melatonin ML1a receptor (Homo sapiens, UniProt P48039); experiment: Melatonergic receptor binding, 2-[125I]-iodomelatonin, ML1a; conditions: NIH-3T3 membranes, 0.1 nM 2-[125I]-iodomelatonin, 37° C. 1 hour
T1 construct: expressed in transfected cells; membrane homogenates
Method: (§1) Melatonergic Receptor Binding Activity
(§2) (a) TME=50 mM Tris buffer containing 12.5 mM MgCl2, and 2 mM EDTA, pH 7.4 at 37° C., with concentrated HCl.
(§3) (b) Wash buffer: 20 mM Tris base containing 2 mM MgCl2, pH 7.4 at room temperature.
(§4) (c) 10^−4 M melatonin (10^−5 M final concentration).
(d) 2-[^125I]-iodomelatonin ML1a, 0.1 nM final concentration.
(§5) 2. Membrane Homogenates: The melatonin ML1a and ML1b receptors cDNA were individually subcloned into pcDNA3 and introduced into NIH-3T3 cells using Lipofectamine. Transformed NIH-3T3 cells resistant to geneticin (G-418) were isolated, and single colonies expressing high levels of 2[^125I]-iodomelatonin binding were isolated. Cells are maintained in DMEM supplemented with 10% calf serum and G-418 (0.5 g/liter). Cells are grown to confluency in T-175 flasks, scraped using Hank's balanced salt solution, and frozen at −80° C. For preparing membrane homogenates, pellets are thawed on ice, and re-suspended in TME buffer in the presence of 10 μg/ml aprotinin and leupeptin, and 100 μM phenylmethylsulfonylfluoride. The cells were then homogenized using a dounce homogenizer, and centrifuged. The resulting pellet was re-suspended with dounce homogenizer in TME (supplemented with the above protease inhibitors) and frozen. On the day of assay, a small aliquot was thawed on ice and re-suspended in the ice cold TME (1:50-1:100 v/v) and held on ice until assayed.
(§6) 3. Incubation: 37° C. for 1 hour. Reaction is terminated by filtration. Filters were washed 3 times.
(§7) 4. References: Reppert, S. M. et al., Neuron, 13, p. 1177-1185 (1994); and Reppert, S. M. et al., Proc. Natl. Acad. Sci. USA, 92, p. 8734-8738 (1995).
(§8) The compounds of the present invention have affinity for receptors of the endogenous pineal hormone, melatonin, as determined in receptor binding assays described above in Tables I to III for the ML1a and ML1b (human) receptors. Melatonin is involved in the regulation of a variety of biological rhythms and exerts its biological effects via interaction with specific receptors. There is evidence that administration of melatonin agonists are of clinical utility in the treatment of various conditions regulated by melatonin activity. Such conditions include depression, jet-lag, work-shift syndrome, sleep disorders, glaucoma, some disorders associated with reproduction, cancer benign prostatic hyperplasia, immune disorders, and neuroendocrine disorders.

melatonin ML1b receptor = target: T2, melatonin ML1b receptor (Homo sapiens, UniProt P49286); experiment: Melatonergic receptor binding, 2-[125I]-iodomelatonin, ML1b; conditions: NIH-3T3 membranes, 0.2 nM 2-[125I]-iodomelatonin, 37° C. 1 hour
T2 construct: expressed in transfected cells; membrane homogenates
T2 sequence (P49286 1-362): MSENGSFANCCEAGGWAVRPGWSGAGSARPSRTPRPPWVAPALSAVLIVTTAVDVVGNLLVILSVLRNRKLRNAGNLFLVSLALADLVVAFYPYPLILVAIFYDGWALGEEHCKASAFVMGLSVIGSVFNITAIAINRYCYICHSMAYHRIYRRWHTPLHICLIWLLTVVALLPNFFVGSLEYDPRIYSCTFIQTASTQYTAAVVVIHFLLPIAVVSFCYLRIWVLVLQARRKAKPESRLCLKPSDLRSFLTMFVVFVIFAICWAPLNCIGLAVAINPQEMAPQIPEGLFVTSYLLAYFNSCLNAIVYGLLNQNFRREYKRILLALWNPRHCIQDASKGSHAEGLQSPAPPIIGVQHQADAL
Method: as §1, §2, §3, §4
(e) 2-[^125I]-iodomelatonin ML1b, 0.2 nM final concentration.
as §5, §6, §7, §8

T1 sequence (P48039 whole entry): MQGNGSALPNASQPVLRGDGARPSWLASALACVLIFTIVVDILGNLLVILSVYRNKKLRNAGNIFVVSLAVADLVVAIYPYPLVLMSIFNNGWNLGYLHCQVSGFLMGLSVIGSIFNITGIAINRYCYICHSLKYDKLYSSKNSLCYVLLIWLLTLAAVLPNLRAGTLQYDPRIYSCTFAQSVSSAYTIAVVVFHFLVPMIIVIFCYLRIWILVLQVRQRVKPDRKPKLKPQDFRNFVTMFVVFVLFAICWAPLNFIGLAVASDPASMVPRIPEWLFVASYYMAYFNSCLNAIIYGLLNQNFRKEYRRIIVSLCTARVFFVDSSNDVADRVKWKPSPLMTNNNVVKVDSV

Row | Compound | IC50 (melatonin ML1a receptor; Table II) | IC50 (melatonin ML1b receptor; Table II) | IC50 (melatonin ML1a receptor; Table III) | IC50 (melatonin ML1b receptor; Table III)
1 | C=Cc1cc(CCCNC(=O)c2ccccc2)c2oc(CC)nc2c1 [Example 71, N-[3-(2-Ethyl-5-vinylbenzoxazol-7-yl)propyl]benzamide] | > 250 nM | > 250 nM | – | –
2 | C=Cc1cc(CCCNC(=O)C2CC2)c2oc(CC)nc2c1 [Example 72, Cyclopropyl-N-[3-(2-ethyl-5-vinylbenzoxazol-7-yl)propyl]carboxamide] | > 250 nM | > 250 nM | – | –
3 | CCc1nc2ccc(-c3ccco3)c(CCCNC(C)=O)c2o1 [Example 73, N-[3-(2-Ethyl-6-(2-furyl)benzoxazol-7-yl)propyl]acetamide] | < 10 nM | < 10 nM | – | –
4 | CCc1nc2ccc(-c3ccco3)c(CCCNC(=O)C3CC3)c2o1 [Example 75, Cyclopropyl-N-[3-(2-ethyl-6-(2-furyl)benzoxazol-7-yl)propyl]carboxamide] | 10 to 250 nM | < 10 nM | – | –
5 | CCc1nc2cccc([C@@H]3C[C@H]3CNC(C)=O)c2o1 [Example 76, N-{[(1R,2R)-2-(2-Ethylbenzoxazol-7-yl)cyclopropyl]methyl}acetamide] | – | – | < 10 nM | < 10 nM
6 | CCC(=O)NC[C@@H]1C[C@H]1c1cccc2nc(CC)oc12 [Example 77, N-{[(1R,2R)-2-(2-Ethylbenzoxazol-7-yl)cyclopropyl]methyl}propanamide] | – | – | < 10 nM | < 10 nM
7 | CCCC(=O)NC[C@@H]1C[C@H]1c1cccc2nc(CC)oc12 [Example 78, N-{[(1R,2R)-2-(2-Ethylbenzoxazol-7-yl)cyclopropyl]methyl}butanamide] | – | – | < 10 nM | < 10 nM
8 | CCc1nc2cccc([C@@H]3C[C@H]3CNC(=O)C(C)C)c2o1 [Example 79, N-{[(1R,2R)-2-(2-Ethylbenzoxazol-7-yl)cyclopropyl]methyl}-2-methylpropanamide] | – | – | < 10 nM | < 10 nM
9 | CCc1nc2cccc([C@@H]3C[C@H]3CNC(=O)C3CC3)c2o1 [Example 80, N-{[(1R,2R)-2-(2-Ethylbenzoxazol-7-yl)cyclopropyl]methyl}cyclopropylcarboxamide] | – | – | < 10 nM | < 10 nM
10 | CCNC(=O)NC[C@@H]1C[C@H]1c1cccc2nc(CC)oc12 [Example 81, N-{[(1R,2R)-2-(2-Ethylbenzoxazol-7-yl)cyclopropyl]methyl}(ethylamino)carboxamide] | – | – | < 10 nM | < 10 nM
11 | CCCc1nc2cccc([C@@H]3C[C@H]3CNC(C)=O)c2o1 [Example 82, N-{[(1R,2R)-2-(2-Propylbenzoxazol-7-yl)cyclopropyl]methyl}acetamide] | – | – | < 10 nM | < 10 nM
12 | CC(=O)NC[C@@H]1C[C@H]1c1cccc2nc(C(C)C)oc12 [Example 83, N-({(1R,2R)-2-[2-(Methylethyl)benzoxazol-7-yl]cyclopropyl}methyl)acetamide] | – | – | 10 to 250 nM | < 10 nM
13 | CCCc1nc2cccc([C@@H]3C[C@H]3CNC(=O)CC)c2o1 [Example 84, N-{[(1R,2R)-2-(2-Propylbenzoxazol-7-yl)cyclopropyl]methyl}propanamide] | – | – | < 10 nM | < 10 nM
14 | CCC(=O)NC[C@@H]1C[C@H]1c1cccc2nc(C(C)C)oc12 [Example 85, N-({(1R,2R)-2-[2-(Methylethyl)benzoxazol-7-yl]cyclopropyl}methyl)propanamide] | – | – | < 10 nM | < 10 nM
15 | CCCC(=O)NC[C@@H]1C[C@H]1c1cccc2nc(CCC)oc12 [Example 86, N-{[(1R,2R)-2-(2-Propylbenzoxazol-7-yl)cyclopropyl]methyl}butanamide] | – | – | < 10 nM | < 10 nM
16 | CCCC(=O)NC[C@@H]1C[C@H]1c1cccc2nc(C(C)C)oc12 [Example 87, N-({(1R,2R)-2-[2-(Methylethyl)benzoxazol-7-yl]cyclopropyl}methyl)butanamide] | – | – | < 10 nM | < 10 nM
17 | CCCc1nc2cccc([C@@H]3C[C@H]3CNC(=O)C3CC3)c2o1 [Example 90, N-{[(1R,2R)-2-(2-Propylbenzoxazol-7-yl)cyclopropyl]methyl}cyclopropylcarboxamide] | – | – | < 10 nM | < 10 nM
18 | CC(C)c1nc2cccc([C@@H]3C[C@H]3CNC(=O)C3CC3)c2o1 [Example 91, N-({(1R,2R)-2-[2-(Methylethyl)benzoxazol-7-yl]cyclopropyl}methyl)cyclopropylcarboxamide] | – | – | < 10 nM | < 10 nM
19 | CCCc1nc2cccc([C@@H]3C[C@H]3CNC(=O)NCC)c2o1 [Example 92, N-{[(1R,2R)-2-(2-Propylbenzoxazol-7-yl)cyclopropyl]methyl}(ethylamino)carboxamide] | – | – | < 10 nM | < 10 nM
20 | CCNC(=O)NC[C@@H]1C[C@H]1c1cccc2nc(C(C)C)oc12 [Example 93, N-({(1R,2R)-2-[2-(Methylethyl)benzoxazol-7-yl]cyclopropyl}methyl)(ethylamino)carboxamide] | – | – | 10 to 250 nM | 10 to 250 nM
21 | N-({(1R,2R)-2-[2-(5-Phenylbutyl)benzoxazol-7-yl]cyclopropyl}methyl)-2-methylpropanamide [Example 97] | – | – | < 10 nM | < 10 nM
22 | N-({(1R,2R)-2-[2-(5-Phenylbutyl)benzoxazol-7-yl]cyclopropyl}methyl)acetamide [Example 94] | – | – | < 10 nM | < 10 nM
23 | N-({(1R,2R)-2-[2-(5-Phenylbutyl)benzoxazol-7-yl]cyclopropyl}methyl)butanamide [Example 96] | – | – | < 10 nM | < 10 nM
24 | N-({(1R,2R)-2-[2-(5-Phenylbutyl)benzoxazol-7-yl]cyclopropyl}methyl)cyclopropylcarboxamide [Example 98] | – | – | < 10 nM | < 10 nM
25 | N-({(1R,2R)-2-[2-(5-Phenylbutyl)benzoxazol-7-yl]cyclopropyl}methyl)propanamide [Example 95] | – | – | < 10 nM | < 10 nM
26 | N-({(1R,2R)-2-[2-(Methylethyl)benzoxazol-7-yl]cyclopropyl}methyl)-3-methylbutanamide [Example 89] | – | – | < 10 nM | < 10 nM

Reference: patent US6737431B2 (Bristol-Myers Squibb Company, priority 2002, dated 2004)
